Experimental data taken from article PMC7076388 (Pharmaceutics, 2020).
pIC50: −log10 of the molar value.

How the values were obtained:
RAW 264.7 cells = assay: MTT cell viability, RAW 264.7 macrophages; type: cell-based, murine; settings: for cytotoxic effect on RAW 264.7 viability: up to 100 µM, 24 h
Method: (§1) Adenocarcinoma gastric cells (AGS; Sigma-Aldrich, St. Louis, MO, USA), murine-macrophage cell line (RAW 264.7; American Type Culture Collection, LGC Standards S.L.U., Barcelona, Spain), and human foetal lung fibroblasts (MRC-5; ECACC, Porton Down Salisbury, UK) were cultured as a monolayer at 37 °C in a humidified incubator with 5% carbon dioxide. AGS and RAW 264.7 cells were grown in DMEM, supplemented with 1% streptomycin/penicillin and 10% FBS (Gibco®). MRC-5 cells were grown in MEM, supplemented with 1% streptomycin/penicillin and 10% FBS.
(§2) Cell viability was evaluated by the MTT reduction assay. Cells were cultured in 96-well plates (15,000 cells/well for AGS, 25,000 cells/well for RAW and 20,000 cells/well for MRC-5) and allowed to attach for 24 h. After incubation with compounds for 24 h, MTT (0.5 mg/mL final concentration) was added to each well and the plate was incubated for 75 min at 37 °C. Formazan crystals were dissolved by the addition of a DMSO: isopropanol mixture (3:1) and then quantified spectrophotometrically at 570 nm using a microplate reader (Multiskan Thermo Fisher Scientific Oy, Vantaa, Finland).

[1] = system: LPS-induced •NO production in RAW 264.7 cells; assay: LPS-induced NO production in RAW 264.7 (Griess); type: cell-based, murine; settings: Mus musculus, RAW264.7; RAW 264.7, LPS 1 µg/mL; read-out: IC50 (LPS-dependent •NO production)
Method: RAW 264.7 cells were cultured in 96-well plates (35,000 cells/well) for 24 h and then pre-treated with different concentrations of each compound. After 2 h, LPS was added (final concentration 1 µg/mL) and the plates were incubated at 37 °C, in a humidified atmosphere of 5% CO2. After 22 h, 75 µL of cell supernatant was transferred to a 96-well plate and mixed with 75 µL of Griess reagent (1% sulfanilamide and 0.1% naphthylethylenediamine dihydrochloride in 2% H3PO4). The plate was incubated at room temperature for 10 min in the dark and then the absorbance was read at 540 nm using a microplate reader (Multiskan Thermo Fisher Scientific Oy, Vantaa, Finland).

[2] = molecular target: T1, LOX from glycine max (soybean) (Glycine max, UniProt P08170); assay: Lipoxygenase glycine max (soybean) assay; type: biochemical; settings: for LOX inhibition at single concentration: 100 µM; for pIC50: dose-response assay, read-out: IC50 for LOX inhibition
T1 construct: purchased Sigma-Aldrich
T1 sequence (P08170 1-839): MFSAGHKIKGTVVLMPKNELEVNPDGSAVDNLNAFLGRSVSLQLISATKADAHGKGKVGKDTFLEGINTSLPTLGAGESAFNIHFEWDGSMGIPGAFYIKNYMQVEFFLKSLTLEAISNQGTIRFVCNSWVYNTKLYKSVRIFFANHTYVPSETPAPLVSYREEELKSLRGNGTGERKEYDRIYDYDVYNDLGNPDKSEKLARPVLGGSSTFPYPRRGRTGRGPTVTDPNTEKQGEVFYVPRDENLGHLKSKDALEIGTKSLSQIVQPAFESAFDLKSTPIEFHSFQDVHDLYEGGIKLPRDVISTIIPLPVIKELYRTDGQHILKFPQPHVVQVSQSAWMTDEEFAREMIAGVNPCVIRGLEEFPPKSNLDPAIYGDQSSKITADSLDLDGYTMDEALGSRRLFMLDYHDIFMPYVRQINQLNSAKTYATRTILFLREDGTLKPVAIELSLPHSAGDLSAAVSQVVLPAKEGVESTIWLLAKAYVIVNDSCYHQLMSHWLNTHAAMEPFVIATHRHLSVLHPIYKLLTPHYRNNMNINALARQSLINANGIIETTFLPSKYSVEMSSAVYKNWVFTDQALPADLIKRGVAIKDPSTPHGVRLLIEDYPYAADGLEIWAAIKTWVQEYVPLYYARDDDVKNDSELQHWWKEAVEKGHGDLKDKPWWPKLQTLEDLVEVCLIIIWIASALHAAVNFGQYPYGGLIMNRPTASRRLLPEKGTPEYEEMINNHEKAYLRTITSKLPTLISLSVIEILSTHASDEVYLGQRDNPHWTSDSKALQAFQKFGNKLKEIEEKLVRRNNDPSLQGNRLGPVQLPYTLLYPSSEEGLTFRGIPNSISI
Method: The inhibitory effect on LOX was assessed in 96-well plates, using a modified version of a previously reported procedure from Pereira et al.. […] After 5 min pre-incubation at room temperature, the reaction was started by addition of linoleic acid substrate (20 µL of a 4.18 mM solution in ethanol). The reaction was monitored at 234 nm using a multiplate reader (Multiskan Thermo Fisher Scientific Oy, Vantaa, Finland), for 3 min.

AGS cells = assay: MTT cell viability, AGS cells; type: cell-based; settings: 24 h; for toxicity towards AGS cells: 100 µM
Method: as §1, §2

[3] = molecular target: 20S proteasome isolated from erythrocytes (Homo sapiens, UniProt P28074); assay: 20S proteasome inhibition (chymotrypsin-like activity); type: biochemical; parameters: purified 20S proteasome isolated from erythrocytes (Enzo Life Sciences); purchased Enzo Life Sciences; host or cells: erythrocytes; settings: 100 µM
Method: Proteasome activity was measured by adapting a method described by Silva et al.. The substrate used to study chymotrypsin-like enzyme activity was Suc-Leu-Leu-Val-Tyr-AMC and the enzyme used was purified 20S proteasome isolated from erythrocytes (Enzo Life Sciences). […] The plate was incubated at 37 °C in the dark for 2 h. […] Lactacystin was used as positive control.

[4] = MTT cell viability, MRC-5 cells; type: cell-based; settings: human, MRC-5 cells (human foetal lung fibroblasts)
Method: as §1, §2

[5] = Solubility in enzymatic assay buffer; type: physicochemical
COX-1 = molecular target: T2, COX-1 (Ovis aries, UniProt P05979); assay: COX fluorescent inhibitor screening assay, COX-1; type: biochemical
T2 construct: purchased Cayman Chemical
T2 sequence (P05979 25-600): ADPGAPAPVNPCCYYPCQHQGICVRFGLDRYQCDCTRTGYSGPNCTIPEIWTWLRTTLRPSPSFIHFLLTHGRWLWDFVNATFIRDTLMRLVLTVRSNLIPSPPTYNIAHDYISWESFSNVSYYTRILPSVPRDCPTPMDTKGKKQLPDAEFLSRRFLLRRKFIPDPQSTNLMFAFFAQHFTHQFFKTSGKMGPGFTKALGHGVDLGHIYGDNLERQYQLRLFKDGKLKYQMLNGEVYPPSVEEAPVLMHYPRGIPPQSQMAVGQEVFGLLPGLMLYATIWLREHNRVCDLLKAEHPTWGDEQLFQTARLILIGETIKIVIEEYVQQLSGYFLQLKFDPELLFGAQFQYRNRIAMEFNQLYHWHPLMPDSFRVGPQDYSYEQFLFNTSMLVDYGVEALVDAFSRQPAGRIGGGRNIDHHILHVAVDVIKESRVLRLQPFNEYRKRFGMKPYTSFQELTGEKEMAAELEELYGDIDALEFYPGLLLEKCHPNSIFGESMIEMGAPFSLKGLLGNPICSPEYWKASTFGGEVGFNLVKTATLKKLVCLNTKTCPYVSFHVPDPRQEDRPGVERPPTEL
Method: (§3) The assay was performed using the COX fluorescent inhibitor screening assay kit (Cayman chemical, MI, USA), with some modifications. […] After 5 min of incubation at room temperature, 5 µL of 10-acetyl-3,7-dihydroxyphenoxazine (ADHP) and 20 µL of a solution containing arachidonic acid (0.5 mM) and KOH (2.5 mM) were added to each well.

COX-2 = molecular target: T3, COX-2 (Homo sapiens, UniProt P35354); assay: COX fluorescent inhibitor screening assay, COX-2; type: biochemical
T3 construct: purchased Cayman Chemical
T3 sequence (P35354 18-604): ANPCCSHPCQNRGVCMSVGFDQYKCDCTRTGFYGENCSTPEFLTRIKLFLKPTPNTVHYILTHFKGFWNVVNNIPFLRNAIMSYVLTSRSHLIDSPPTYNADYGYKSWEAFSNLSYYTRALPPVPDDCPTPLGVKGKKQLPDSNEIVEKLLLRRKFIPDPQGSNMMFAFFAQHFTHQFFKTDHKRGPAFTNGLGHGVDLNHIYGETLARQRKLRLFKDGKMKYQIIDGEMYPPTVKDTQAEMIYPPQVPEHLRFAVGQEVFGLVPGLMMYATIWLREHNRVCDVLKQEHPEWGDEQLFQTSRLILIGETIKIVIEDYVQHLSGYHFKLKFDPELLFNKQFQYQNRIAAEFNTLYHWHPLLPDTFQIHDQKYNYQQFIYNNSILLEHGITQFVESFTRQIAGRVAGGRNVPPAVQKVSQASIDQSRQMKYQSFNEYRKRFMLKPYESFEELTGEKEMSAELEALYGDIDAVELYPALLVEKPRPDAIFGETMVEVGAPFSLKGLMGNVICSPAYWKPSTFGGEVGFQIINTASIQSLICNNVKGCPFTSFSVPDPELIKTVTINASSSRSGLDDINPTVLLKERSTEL
Method: as §3

Compound	cytotoxic effect on RAW 264.7 viability (RAW 264.7 cells)	pIC50 [1]	LOX inhibition at single concentration [2]	pIC50 [2]	toxicity towards AGS cells (AGS cells)	remaining activity at 100 µM ([3]; read-out: 20S proteasome enzyme activity remaining) [%]	pIC50 (RAW 264.7 cells; Mus musculus, RAW264.7, 24 h)	pIC50 (AGS cells; Homo sapiens, AGS)	viability at 24 h, 100 µM [4] [%]	solubility in COX assay medium ([5]; Tris-HCl pH 8.0)	solubility in LOX assay buffer solution ([5]; phosphate buffer pH 9.0)	20S proteasome inhibition [3]	inhibition at 25 µM (COX-1) [%]	inhibition at 25 µM (COX-2) [%]
CC=C(NC(=O)C(Cc1c[nH]c2ccccc12)NC(=O)C(C)c1ccc2cc(OC)ccc2c1)C(=O)O [Compound 8, Npx-L-Trp-Z-ΔAbu-OH]	did not show any statistically significant cytotoxic effects	4.07	significantly inhibit the LOX enzyme to a similar level to naproxen	4.31	not toxic	–	–	–	–	–	–	–	–	–
COc1ccc2cc(C(C)C(=O)NC(Cc3c[nH]c4ccccc34)C(=O)NC(=Cc3ccccc3)C(=O)O)ccc2c1 [Compound 3, Npx-L-Trp-Z-ΔPhe-OH]	did not show any statistically significant cytotoxic effects	4.19	significantly inhibit the LOX enzyme to a similar level to naproxen	4.25	slightly cytotoxic	52	–	–	–	–	–	–	–	–
COC(=O)C(=Cc1ccccc1)NC(=O)C(Cc1ccc(O)cc1)NC(=O)C(C)c1ccc2cc(OC)ccc2c1 [Compound 7, Npx-L-Tyr-Z-ΔPhe-OMe]	–	–	–	–	–	–	4.64	4.96	~87	insoluble in the assay medium	insolubility in the assay buffer solution	not able to inhibit the 20S proteasome	–	–
COc1ccc2cc(C(C)C(=O)NC(CCSC)C(=O)NC(=Cc3ccccc3)C(=O)O)ccc2c1 [Compound 6, Npx-L-Met-Z-ΔPhe-OH]	did not show any statistically significant cytotoxic effects	–	significantly inhibit the LOX enzyme to a similar level to naproxen	4.22	not toxic	–	–	–	–	–	–	–	–	–
COc1ccc2cc(C(C)C(=O)NC(CCCCN)C(=O)NC(=Cc3ccccc3)C(=O)O)ccc2c1 [Compound 5, Npx-L-Lys-Z-ΔPhe-OH]	small cytotoxic effect	–	not able to inhibit LOX activity	–	slightly cytotoxic	–	–	–	~79	–	–	–	–	–
COc1ccc2cc(C(C)C(=O)NC(C)C(=O)NC(=Cc3ccccc3)C(=O)O)ccc2c1 [Compound 4, Npx-L-Ala-Z-ΔPhe-OH]	did not show any statistically significant cytotoxic effects	–	significantly inhibit the LOX enzyme to a similar level to naproxen	4.25	not toxic	–	–	–	–	–	–	–	9	66
